Measurements taken from PMC4886168, “Effects of solid‐phase extraction of plasma in measuring gut metabolic hormones in fasted and fed blood of lean and diet‐induced obese rats” (Physiological Reports, 2016).
Values joined by “and” are separate entries in the source; they are usually repeats but may differ in a detail not shown here. Equal values may be shown once.

B1: Leptin (protein, UniProt P41160 22-167, looked up)
Leptin: VPIQKVQDDTKTLIKTIVTRINDISHTQSVSAKQRVTGLDFIPGLHPILSLSKMDQTLAVYQQVLTSLPSQNVLQIANDLENLRDLLHLLAFSKSCSLPQTSGLQKPESLDGVLEASLYSTEVVALSRLQGSLQDILQQLDVSPEC

Legend:
[1] = Plasma peptide levels during IV infusion of anorexigenic doses in lean rats
Protocol: Leptin doses bracketed the minimal effective dose (1100 ng/kg/min) for reducing food intake in lean rats (Reidelberger et al. 2012). Approximately 45 min after infusion onset, and while the infusion continued, rats were anesthetized with isoflurane (3%), and blood samples (~3 mL) were obtained by cardiac puncture. Samples were immediately transferred to 4 mL EDTA tubes on ice containing 40 μL of a mixture of 0.9 mL DPP4 inhibitor, 0.1 mL Protease Inhibitor Cocktail, and 0.1 g AEBSF. Plasma was obtained by centrifugation within 30 min of sample collection and stored at −70°C until solid‐phase extraction of samples followed by the multiplex assay. Infusions were administered using a syringe infusion pump (Harvard Apparatus, South Natick, MA). At the end of the experiment, data from a rat were excluded if its jugular vein catheter was not patent. A catheter was deemed patent if the rat lost consciousness within 10 sec of a bolus injection of the short‐acting anesthetic brevital into the catheter.
Plasma samples were extracted using procedures similar to those described previously (Dai et al. 2008). Briefly, an OASIS HLB LP (60 mg) 96‐well extraction plate (Waters Corp., Milford, MA) was prepared by passing 1 mL acetonitrile twice through each well, followed by 3, 1 mL washes of 1% trifluoroacetic acid (TFA; 1:100 water [vol/vol]). Flows through the wells were facilitated using a Waters vacuum manifold (5 inch Hg). Plasma (1 mL) was then added to each well; 10 min later, flows were facilitated using vacuum. Wells were then washed three times with 1 mL 1% TFA (facilitated using vacuum). Extracts were eluted into individual tubes by adding 1 mL of 1% TFA, 60% acetonitrile in water (vol/vol) to each well; 10 min later, flows were facilitated using vacuum. Samples of each extract (0.9 mL) were frozen, and then lyophilized to dryness. At time of assay, dried extracts for each sample were dissolved with 0.45 mL of assay buffer, producing a twofold higher concentration for eluted plasma components.
The multiplex assay employed a BioTek ELx405 plate washer fitted with a magnetic holder, and a Luminex 200 analyzer. […] Initial assays compared peptide standards used in the multiplex assay with those used in the individual ELIAs: multiplex assay standards were included in the individual ELIAs, and standards from the ELIAs were included in the multiplex assay.
In experiments examining the effects of solid‐phase extraction of plasma samples on specific recoveries of the seven peptides added to lean and obese plasma, measured peptide concentrations in each plasma sample were plotted against expected concentrations (after subtracting plasma alone values), and linear regression analyses were performed. […] Planned comparisons of treatment means were evaluated by t‐tests or paired t‐tests. […]

food intake in lean rats = conditions: cited from earlier work; for ED50 dose for reducing food intake: 3-h IV infusion, ref Reidelberger et al. 2001, Chelikani et al. 2005a,b
[2] = rats, amylin 15 ng/kg/min IV; solid-phase extraction of plasma, amylin radioimmunoassay; ref Arnelo et al. 1998; cited from earlier work
Text: With respect to the pancreatic hormone amylin, we previously provided evidence that postprandial plasma levels of amylin are not quite sufficient to inhibit food intake in rats by an endocrine mechanism (Arnelo et al. 1998). […] Here, we provide evidence using solid‐phase extraction of plasma and the multiplex assay for active amylin that a large chow meal in ...

Row | predicted plasma active amylin level at minimal anorexigenic dose ([1]; rat, in vivo, iv) | Molecule | best-fit linear regression equation, Y plasma peptide concentration (pg/mL), X peptide dose (ng/kg/min) ([1]; lean rats, 45 min IV infusion, three dose levels incl. 0, extracted plasma, multiplex assay, multiplex standards as reference) | plasma level at ~ED50 dose relative to that produced by the large meal ([1]; lean rats, IV ~ED50 doses (56, 68, 39 ng/kg/min) vs postprandial level 30 min after meal onset, ELIA standards as reference) | predicted plasma active GLP-1 level at minimal anorexigenic dose ([1]; regression prediction for GLP-1 1.6 ng/kg/min IV, dose not administered here, [95% CI]) | ED50 dose for reducing food intake (food intake in lean rats; lean rats) | effect on food intake (food intake in lean rats; rats, IV infusion of GLP-1 at 33 ng/kg/min, ref Chelikani et al. 2005b) | plasma amylin produced by anorexigenic IV dose [2] | minimal effective dose for reducing food intake (food intake in lean rats; lean rats, IV infusion of leptin, ref Reidelberger et al. 2012)
1 |  | CC[C@H](C)[C@H](NC(=O)[C@H](Cc1ccccc1)NC(=O)[C@H](CCC(=O)O)NC(=O)[C@H](CCCCN)NC(=O)[C@H](C)NC(=O)[C@H](C)NC(=O)[C@H](CCC(N)=O)NC(=O)CNC(=O)[C@H](CCC(=O)O)NC(=O)[C@H](CC(C)C)NC(=O)[C@H](Cc1ccc(O)cc1)NC(=O)[C@H](CO)NC(=O)[C@H](CO)NC(=O)[C@@H](NC(=O)[C@H](CC(=O)O)NC(=O)[C@H](CO)NC(=O)[C@@H](NC(=O)[C@H](Cc1ccccc1)NC(=O)[C@@H](NC(=O)CNC(=O)[C@H](CCC(=O)O)NC(=O)[C@H](C)NC(=O)[C@@H](N)Cc1c[nH]cn1)[C@@H](C)O)[C@@H](C)O)C(C)C)C(=O)N[C@@H](C)C(=O)N[C@@H](Cc1c[nH]c2ccccc12)C(=O)N[C@@H](CC(C)C)C(=O)N[C@H](C(=O)N[C@@H](CCCCN)C(=O)NCC(=O)N[C@@H](CCCNC(=N)N)C(N)=O)C(C)C [GLP‐1, Glucagon‐like peptide‐1] | 37 + 75X pg/mL | 30–60 fold and 30 fold | 53 [−400, 510] pg/mL | 76 ng/kg/min | sufficient to decrease food intake |  | 
2 | 450 [−460, 1360] pg/mL | CC(C)C[C@H](NC(=O)[C@H](CC(N)=O)NC(=O)[C@H](CC(N)=O)NC(=O)[C@H](CO)NC(=O)[C@H](CO)NC(=O)[C@H](CCCNC(=N)N)NC(=O)[C@@H](NC(=O)[C@H](CC(C)C)NC(=O)[C@H](Cc1ccccc1)NC(=O)[C@H](CC(N)=O)NC(=O)[C@H](C)NC(=O)[C@H](CC(C)C)NC(=O)[C@H](CCCNC(=N)N)NC(=O)[C@H](CCC(N)=O)NC(=O)[C@@H](NC(=O)[C@H](C)NC(=O)[C@@H]1CSSC[C@H](NC(=O)[C@@H](N)CCCCN)C(=O)N[C@@H](CC(N)=O)C(=O)N[C@@H]([C@@H](C)O)C(=O)N[C@@H](C)C(=O)N[C@@H]([C@@H](C)O)C(=O)N1)[C@@H](C)O)C(C)C)C(=O)NCC(=O)N1CCC[C@H]1C(=O)N[C@H](C(=O)N[C@@H](CC(C)C)C(=O)N1CCC[C@H]1C(=O)N1CCC[C@H]1C(=O)N[C@H](C(=O)N[C@@H](CC(N)=O)C(=O)N[C@H](C(=O)NCC(=O)N[C@@H](CO)C(=O)N[C@@H](CC(N)=O)C(=O)N[C@H](C(=O)N[C@@H](Cc1ccc(O)cc1)C(N)=O)[C@@H](C)O)C(C)C)[C@@H](C)O)C(C)C [Amylin] |  |  |  | 31 ng/kg/min |  | 140 pg/mL | 
3 |  | B1 |  |  |  |  |  |  | 1100 ng/kg/min
